According to patent publication US6525001B1, “Substituted pyrimidine and pyridine herbicides” (Mid-American Commercialization Corporation, priority 1997, dated 2003):

Columns and labels:
Assay type in all cases: in vivo
Parameters in all cases: key: 0 is no effect; 10 is complete control
[1] = tested on: crabgrass (Digitaria sanguinalis); experiment: Test B pre-/postemergence
Summary of the method: (§1)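 Seeds were planted and sprayed preemergence, while plants at 2 to 18 cm (1- to 4-leaf stage) were sprayed postemergence at the same time, with test chemical in a non-phytotoxic solvent mixture containing surfactant. After twelve to sixteen days in a greenhouse, injury was rated visually against untreated controls on a 0–10 scale.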

[2] = tested on: sugar beet (Beta vulgaris); experiment: Test B pre-/postemergence
Summary of the method: as §1

[3] = tested on: bedstraw (Galium aparine); experiment: Test B pre-/postemergence; settings: Postemergence
Summary of the method: as §1

[4] = tested on: pigweed (Amaranthus retroflexus); experiment: Test B pre-/postemergence
Summary of the method: as §1

wild oat (Avena fatua) = experiment: Test B pre-/postemergence
Summary of the method: as §1

[5] = tested on: blackgrass (Alopecurus myosuroides); experiment: Test B pre-/postemergence
Summary of the method: as §1

[6] = tested on: cocklebur (Xanthium strumarium); experiment: Test B pre-/postemergence
Summary of the method: as §1

[7] = tested on: broadleaf signalgrass (Brachiaria decumbens); experiment: Test B pre-/postemergence
Summary of the method: as §1

rape (Brassica napus) = experiment: Test B pre-/postemergence
Summary of the method: as §1

soybean (Glycine max) = experiment: Test B pre-/postemergence
Summary of the method: as §1

[8] = tested on: velvetleaf (Abutilon theophrasti); experiment: Test B pre-/postemergence
Summary of the method: as §1

[9] = tested on: wheat (Triticum aestivum); experiment: Test B pre-/postemergence
Summary of the method: as §1

[10] = tested on: purple nutsedge (Cyperus rotundus); experiment: Test B pre-/postemergence; settings: Rate 62 g/ha
Summary of the method: as §1

corn (Zea mays) = experiment: Test B pre-/postemergence
Summary of the method: as §1

[11] = tested on: giant foxtail (Setaria faberii); experiment: Test B pre-/postemergence
Summary of the method: as §1

[12] = tested on: momingglory (Ipomoea hederacea); experiment: Test B pre-/postemergence
Summary of the method: as §1

rice (Oryza sativa) = experiment: Test B flood test
Summary of the method: (§2)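 Plants were grown to the 2-leaf stage before treatment with test chemical, then held in a greenhouse for twelve to sixteen days. Injury was visually rated against untreated controls on a 0–10 scale, where 0 is no effect and 10 is complete control.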

[13] = tested on: bamyardgrass (Echinochloa crus-galli); experiment: Test B flood test
Summary of the method: as §2

[14] = tested on: duck salad (Heteranthera limosa); experiment: Test B flood test
Summary of the method: as §2

[15] = tested on: smallflower flatsedge (Cyperus difformis); experiment: Test B flood test
Summary of the method: as §2

[16] = Preemergence, Rate 62 g/ha, scale of 0 to 10
[17] = Rate 62 g/ha, Postemergence (flood test)
[18] = Rate 125 g/ha, Postemergence section (flood test species)
[19] = Rate 250 g/ha, Postemergence (flood test species)

O=C(c1cccc(C(F)(F)F)c1)c1ccnc(-c2ccc(C(F)(F)F)cc2)n1 [Compound 77]
Plant response rating, Crabgrass [1, 16]: 0
Crabgrass plant response rating ([1]; Rate 62 g/ha, Postemergence): 0
Crabgrass plant response rating ([1]; Rate 125 g/ha, Postemergence): 2
Plant response rating, Crabgrass ([1]; Rate 125 g/ha, Preemergence): 0
Plant response rating, Crabgrass ([1]; Rate 250 g/ha, Postemergence): 2
Plant response rating, Crabgrass ([1]; Rate 250 g/ha, Preemergence): 1
Plant response rating, Sugarbeets [2, 16]: 0
Sugarbeets plant response rating ([2]; Rate 62 g/ha, Postemergence): 1
Sugarbeets plant response rating ([2]; Rate 125 g/ha, Postemergence): 1
Plant response rating, Sugarbeets ([2]; Rate 125 g/ha, Preemergence): 0
Plant response rating, Sugarbeets ([2]; Rate 250 g/ha, Postemergence): 3
Plant response rating, Sugarbeets ([2]; Rate 250 g/ha, Preemergence): 0
Bedstraw plant response rating ([3]; Rate 62 g/ha): 1
Bedstraw plant response rating ([3]; Rate 125 g/ha): 1
Plant response rating, Bedstraw ([3]; Rate 250 g/ha): 4
Plant response rating, Redroot pigweed [4, 16]: 0
Redroot pigweed plant response rating ([4]; Rate 62 g/ha, Postemergence): 2
Redroot pigweed plant response rating ([4]; Rate 125 g/ha, Postemergence): 2
Plant response rating, Redroot pigweed ([4]; Rate 125 g/ha, Preemergence): 0
Plant response rating, Redroot pigweed ([4]; Rate 250 g/ha, Postemergence): 3
Plant response rating, Redroot pigweed ([4]; Rate 250 g/ha, Preemergence): 0
Plant response rating, Wild oats (wild oat (Avena fatua); [16]): 0
Wild oats plant response rating (wild oat (Avena fatua); Rate 62 g/ha, Postemergence): 0
Wild oats plant response rating (wild oat (Avena fatua); Rate 125 g/ha, Postemergence): 0
Plant response rating, Wild oats (wild oat (Avena fatua); Rate 125 g/ha, Preemergence): 0
Plant response rating, Wild oats (wild oat (Avena fatua); Rate 250 g/ha, Postemergence): 1
Plant response rating, Wild oats (wild oat (Avena fatua); Rate 250 g/ha, Preemergence): 0
Plant response rating, Blackgrass [5, 16]: 0
Blackgrass plant response rating ([5]; Rate 62 g/ha, Postemergence): 0
Blackgrass plant response rating ([5]; Rate 125 g/ha, Postemergence): 0
Plant response rating, Blackgrass ([5]; Rate 125 g/ha, Preemergence): 0
Plant response rating, Blackgrass ([5]; Rate 250 g/ha, Postemergence): 2
Plant response rating, Blackgrass ([5]; Rate 250 g/ha, Preemergence): 0
Plant response rating, Cocklebur [6, 16]: 0
Cocklebur plant response rating ([6]; Rate 62 g/ha, Postemergence): 1
Cocklebur plant response rating ([6]; Rate 125 g/ha, Postemergence): 3
Plant response rating, Cocklebur ([6]; Rate 125 g/ha, Preemergence): 0
Plant response rating, Cocklebur ([6]; Rate 250 g/ha, Postemergence): 3
Plant response rating, Cocklebur ([6]; Rate 250 g/ha, Preemergence): 0
B. signalgrass plant response rating ([7]; Rate 62 g/ha, Postemergence): 0
B. signalgrass plant response rating ([7]; Rate 62 g/ha, Preemergence): 0
B. signalgrass plant response rating ([7]; Rate 125 g/ha, Postemergence): 0
Plant response rating, B. signalgrass ([7]; Rate 125 g/ha, Preemergence): 0
Plant response rating, B. signalgrass ([7]; Rate 250 g/ha, Postemergence): 1
Plant response rating, B. signalgrass ([7]; Rate 250 g/ha, Preemergence): 0
Plant response rating, Rape (rape (Brassica napus); [16]): 0
Rape plant response rating (rape (Brassica napus); Rate 62 g/ha, Postemergence): 1
Rape plant response rating (rape (Brassica napus); Rate 125 g/ha, Postemergence): 1
Plant response rating, Rape (rape (Brassica napus); Rate 125 g/ha, Preemergence): 0
Plant response rating, Rape (rape (Brassica napus); Rate 250 g/ha, Postemergence): 2
Plant response rating, Rape (rape (Brassica napus); Rate 250 g/ha, Preemergence): 0
Plant response rating, Soybean (soybean (Glycine max); [16]): 0
Soybean plant response rating (soybean (Glycine max); Rate 62 g/ha, Postemergence): 0
Soybean plant response rating (soybean (Glycine max); Rate 125 g/ha, Postemergence): 1
Plant response rating, Soybean (soybean (Glycine max); Rate 125 g/ha, Preemergence): 0
Plant response rating, Soybean (soybean (Glycine max); Rate 250 g/ha, Postemergence): 1
Plant response rating, Soybean (soybean (Glycine max); Rate 250 g/ha, Preemergence): 0
Plant response rating, Velvetleaf [8, 16]: 0
Velvetleaf plant response rating ([8]; Rate 62 g/ha, Postemergence): 1
Velvetleaf plant response rating ([8]; Rate 125 g/ha, Postemergence): 1
Plant response rating, Velvetleaf ([8]; Rate 125 g/ha, Preemergence): 0
Plant response rating, Velvetleaf ([8]; Rate 250 g/ha, Postemergence): 1
Plant response rating, Velvetleaf ([8]; Rate 250 g/ha, Preemergence): 3
Plant response rating, Wheat [9, 16]: 0
Wheat plant response rating ([9]; Rate 62 g/ha, Postemergence): 0
Wheat plant response rating ([9]; Rate 125 g/ha, Postemergence): 0
Plant response rating, Wheat ([9]; Rate 125 g/ha, Preemergence): 0
Plant response rating, Wheat ([9]; Rate 250 g/ha, Postemergence): 0
Plant response rating, Wheat ([9]; Rate 250 g/ha, Preemergence): 0
Plant response rating, Nutsedge ([10]; Preemergence, scale of 0 to 10): 0
Nutsedge plant response rating ([10]; Postemergence): 0
Plant response rating, Corn (corn (Zea mays); [16]): 0
Corn plant response rating (corn (Zea mays); Rate 62 g/ha, Postemergence): 1
Corn plant response rating (corn (Zea mays); Rate 125 g/ha, Postemergence): 1
Plant response rating, Corn (corn (Zea mays); Rate 125 g/ha, Preemergence): 0
Plant response rating, Corn (corn (Zea mays); Rate 250 g/ha, Postemergence): 1
Plant response rating, Corn (corn (Zea mays); Rate 250 g/ha, Preemergence): 0
Plant response rating, Giant foxtail [11, 16]: 0
Giant foxtail plant response rating ([11]; Rate 62 g/ha, Postemergence): 0
Giant foxtail plant response rating ([11]; Rate 125 g/ha, Postemergence): 1
Plant response rating, Giant foxtail ([11]; Rate 125 g/ha, Preemergence): 0
Plant response rating, Giant foxtail ([11]; Rate 250 g/ha, Postemergence): 1
Plant response rating, Giant foxtail ([11]; Rate 250 g/ha, Preemergence): 1
Plant response rating, Morningglory [12, 16]: 0
Morningglory plant response rating ([12]; Rate 62 g/ha, Postemergence): 2
Morningglory plant response rating ([12]; Rate 125 g/ha, Postemergence): 4
Plant response rating, Morningglory ([12]; Rate 125 g/ha, Preemergence): 0
Plant response rating, Morningglory ([12]; Rate 250 g/ha, Postemergence): 4
Plant response rating, Morningglory ([12]; Rate 250 g/ha, Preemergence): 1
Rice plant response rating (rice (Oryza sativa); [17]): 0
Rice plant response rating (rice (Oryza sativa); [18]): 0
Plant response rating, Rice (rice (Oryza sativa); [19]): 0
Barnyardgrass plant response rating [13, 17]: 0
Barnyardgrass plant response rating [13, 18]: 0
Plant response rating, Barnyardgrass [13, 19]: 0
Ducksalad plant response rating [14, 17]: 0
Ducksalad plant response rating [14, 18]: 0
Plant response rating, Ducksalad [14, 19]: 0
S. Flatsedge plant response rating [15, 17]: 0
S. Flatsedge plant response rating [15, 18]: 0
Plant response rating, S. Flatsedge [15, 19]: 0
